Broadly, the IC50 is the concentration that gives 50% inhibition. Read a high IC50 as lower potency.

Where only a bound is given, the exact number is not on record here.

The target of the test is Dual specificity tyrosine-phosphorylation-regulated kinase 1A (Homo sapiens, UniProt Q13627). The test can be described thus: DYRK1A Inhibition Assay. Here is the method: Assay Procedure1. Add 5 μL enzyme & substrate mixture to each well in Column 2-23 and A24-H24 wells of the 384-well assay plate;2. Add 5 μL 0% Phosphorylation control to A1-H1 and I24-P24 wells of the assay plate;3. Add 5 μL 100% Phosphorylation control to I1-P1 wells of the assay plate;4. Spin the assay plate (1000 rpm, 1 minute @23° C.);5. Incubate enzyme with compounds for 15 minutes at 23° C.;6. Add 5 μL ATP solution to each well of the assay plate;7. Spin the plate (1000 rpm, 1 minute @23° C.);8. Incubate the assay plate for 90 minutes at 23° C.;9. Add 10 μL Development reagent A to each well of the assay plate;10. Centrifuge the plate at 1000 rpm about 15 seconds and seal a film over assay plate. Incubate the assay plate for 30 minutes at 23° C.11. Read assay plates on Envision
`c1cc(-c2c[nH]c3cnccc23)ccn1` [US20250099442, Compound I.1]: the IC50 was in the range of 10 to 100 nM. To `CC(C)n1cc(-c2ccncc2)c2ccncc21` [US20250099442, Compound I.2] belongs < 10 nM; to `CC(C)CN1CCC(C(=O)Nc2cc(-c3c[nH]c4cnccc34)ccn2)CC1` [US20250099442, Compound I.3], < 10 nM.

As for `CC(C)CN1CCC(C(=O)Nc2cc(-c3cn(C(C)C)c4cnccc34)ccn2)CC1` [US20250099442, Compound I.4], the half-inhibitory concentration (IC50) is < 10 nM. Turning to `CC(C)CN1CCC(CNc2cc(-c3c[nH]c4cnccc34)ccn2)CC1` [US20250099442, Compound I.5], the IC50 fell in the range of 10 to 100 nM. In turn, `CC(C)CN1CCC(CNc2cc(-c3cn(C(C)C)c4cnccc34)ccn2)CC1` [US20250099442, Compound I.6] registered a 50% inhibitory concentration (IC50) of 10 to 100 nM. Regarding `CC(C)CN1CCC(C(=O)Nc2nccc(-c3cn(C(C)C)c4cnccc34)n2)CC1` [US20250099442, Compound I.8], the IC50 lay within 10 to 100 nM. Regarding `CC(C)CN1CCC(CNc2nccc(-c3cn(C(C)C)c4cnccc34)n2)CC1` [US20250099442, Compound I.9], the IC50 lay in the range of 100 to 1000 nM. To `c1ccc(Oc2cc(-c3ccc4c(c3)CCO4)ccn2)cc1` [US20250099442, Compound I.10] belongs > 1000 nM; to `c1cncc(-c2cc3c(-c4ccc5c(c4)CCO5)cncc3o2)c1` [US20250099442, Compound I.11], > 1000 nM; to `COc1cccc(-c2nc3cc(NS(C)(=O)=O)cnc3s2)c1` [US20250099442, Compound I.12], > 1000 nM. As to `CS(=O)(=O)Nc1cnc2sc(-c3cccc(O)c3)nc2c1` [US20250099442, Compound I.13], the IC50 was > 1000 nM. As to `CN1CCC(C(=O)Nc2nc3ccc(-c4ccncc4)cc3s2)CC1` [US20250099442, Compound I.14], the IC50 was < 10 nM. In turn, `NC(=O)c1ccc(-c2cnc3[nH]cc(C4CCC4)c3c2)cc1` [US20250099442, Compound I.15] came in with an IC50 of 100 to 1000 nM.

As to `c1cc(-c2cnc3[nH]cc(C4CCC4)c3c2)ccn1` [US20250099442, Compound I.16], the IC50 was > 1000 nM. For `CC(C)CN1CCC(C(=O)Nc2cc(-c3ccc4c(cnn4C)c3)ccn2)CC1` [US20250099442, Compound I.17], the IC50 fell in the range of 10 to 100 nM.

`CC(C)CN1CCC(C(=O)Nc2cc(-c3ccc4nn(C)cc4c3)ccn2)CC1` [US20250099442, Compound I.18] displayed a 50% inhibitory concentration (IC50) of 10 to 100 nM. On to `c1cc(-c2ccc3ncn(C4CCCNC4)c3c2)ccn1` (centres undefined) [US20250099442, Compound I.19], for which the IC50 was 10 to 100 nM. For the molecule `CS(=O)(=O)N1CCC[C@@H](n2cnc3ccc(-c4ccncc4)cc32)C1` [US20250099442, Compound I.22], the IC50 was 100 to 1000 nM. `CC(=O)N1CCCC(n2cnc3ccc(-c4ccncc4)cc32)C1` (centres undefined) [US20250099442, Compound I.23]: the concentration for half-maximal inhibition (IC50) lay in the range of 100 to 1000 nM. To `Cn1nc2cnccc2c1-c1ccnc(NC(=O)C2CC2)c1` [US20250099442, Compound I.25] belongs > 1000 nM. On to `COCCn1nc2cnccc2c1-c1ccnc(NC(=O)C2CC2)c1` [US20250099442, Compound I.26], for which the IC50 is > 1000 nM. `c1cc(Cc2cnc3ccc(-c4ccncc4)cn23)c2cn[nH]c2c1` [US20250099442, Compound I.28] returned an IC50 of 100 to 1000 nM. Turning to `O=C(OCc1ccccc1)N1CCC(n2cnc3ccc(-c4ccncc4)cc32)CC1` [US20250099442, Compound I.30], the IC50 was in the range of 10 to 100 nM.

`c1cc(-c2ccc3ncn(C4CCNCC4)c3c2)ccn1` [US20250099442, Compound I.31] showed an IC50 of 100 to 1000 nM. As for `CS(=O)(=O)N1CCC(n2cnc3ccc(-c4ccncc4)cc32)CC1` [US20250099442, Compound I.32], the IC50 was in the range of 10 to 100 nM. As to `N#Cc1ccc(S(=O)(=O)N2CCCC(n3cnc4ccc(-c5ccncc5)cc43)C2)cc1` (centres undefined) [US20250099442, Compound I.33], the IC50 was 100 to 1000 nM. For `CN1CCC(C(=O)Nc2cc(-c3ccc4c(c3)ncn4C)ccn2)CC1` [US20250099442, Compound I.34], the IC50 was < 10 nM. As to `Fc1ccc(COc2cc(-c3ccc4c(c3)CCO4)ccn2)cc1F` [US20250099442, Compound I.35], the IC50 was > 1000 nM. Consider `c1cc(-c2ccc3c(c2)CCO3)cc(OCC2CCCCN2)n1` (centres undefined) [US20250099442, Compound I.36], for which the IC50 is 100 to 1000 nM.

Turning to `Cn1ncc2ccc(-c3cncc(O[C@@H]4Cc5ccccc5[C@@H]4N)c3)cc21` [US20250099442, Compound I.37], the IC50 was in the range of 100 to 1000 nM. To `CC(=O)N1CCC(n2cnc3ccc(-c4ccncc4)cc32)CC1` [US20250099442, Compound I.38] belongs 10 to 100 nM. For the molecule `O=S(=O)(c1ccc(F)cc1)N1CCCC(n2cnc3ccc(-c4ccncc4)cc32)C1` (centres undefined) [US20250099442, Compound I.39], the IC50 lay within 100 to 1000 nM. `CN1CCC(C(=O)Nc2cn3cc(-c4ccncc4)ccc3n2)CC1` [US20250099442, Compound I.42]: the IC50 is < 10 nM. The result for `COc1cc(-c2ccc3nc(NC(=O)C4C5CC4CN(C)C5)sc3c2)ccn1` (centres undefined) [US20250099442, Compound I.43] reads 10 to 100 nM; that for `CN1CC(C(=O)Nc2nc3ccc(-c4ccncc4)cc3s2)C1` [US20250099442, Compound I.45], 10 to 100 nM. `COc1cc(-c2ccc3nc(NC(=O)C4CN(C)C4)sc3c2)ccn1` [US20250099442, Compound I.46] returned an IC50 of 10 to 100 nM. Take `c1cc(-c2ccc3nc4n(c3c2)CCNC4)ccn1` [US20250099442, Compound I.48]: the IC50 is 100 to 1000 nM.

`CN1CCC(N2CCn3c(nc4ccc(-c5ccncc5)cc43)C2)CC1` [US20250099442, Compound I.49] had an IC50 of 10 to 100 nM. As to `CN1CCn2c(nc3ccc(-c4ccncc4)cc32)C1` [US20250099442, Compound I.50], the IC50 is > 1000 nM. The result for `CN1CCC(C(=O)Nc2nc3ccc(-c4ccncc4)nc3s2)CC1` [US20250099442, Compound I.51] reads < 10 nM; that for `CN1CC2CC(C1)C2C(=O)Nc1nc2ccc(-c3ccncc3)cc2s1` (centres undefined) [US20250099442, Compound I.52], 100 to 1000 nM; that for `CN1CCC(C(=O)Nc2cc(-c3cc(=O)n(C)c4ccccc34)ccn2)CC1` [US20250099442, Compound I.55], 10 to 100 nM. On to `CN1CCC(C(=O)Nc2cc(-c3cc(Cl)cc4ncccc34)ccn2)CC1` [US20250099442, Compound I.56], for which the IC50 lay within 100 to 1000 nM. Turning to `Cc1cc(-c2ccnc(NC(=O)C3CCN(C)CC3)c2)c2ocnc2c1` [US20250099442, Compound I.57], the IC50 was in the range of 100 to 1000 nM.

`CN1CCC(C(=O)Nc2cc3cc(-c4ccncc4)cn3cn2)CC1` [US20250099442, Compound I.58] returned an IC50 of 10 to 100 nM. The result for `CN1CCC(C(=O)Nc2cn3cc(-c4ccncc4)cc3cn2)CC1` [US20250099442, Compound I.59] reads 10 to 100 nM; that for `COc1cc(-c2ccnc(NC(=O)C3CCN(C)CC3)c2)cc2cnccc12` [US20250099442, Compound I.60], 10 to 100 nM. The result for `CCOc1cc(-c2ccc3nc(NC(=O)[C@H]4CCCN(C)C4)sc3c2)ccn1` [US20250099442, Compound I.61] reads 100 to 1000 nM; that for `O=C(Nc1cc2cc(-c3ccncc3)cn2cn1)C1CCOCC1` [US20250099442, Compound I.63], 10 to 100 nM; that for `CN1CCC(C(=O)N2CCn3c(nc4ccc(-c5ccncc5)cc43)C2)CC1` [US20250099442, Compound I.64], 10 to 100 nM. Take `C[C@@H]1CC(C(=O)Nc2cn3cc(-c4ccncc4)ccc3n2)C[C@H](C)N1` (some centres undefined) [US20250099442, Compound I.65]: the IC50 is 10 to 100 nM. The result for `C[C@@H]1CC(C(=O)Nc2cn3cc(-c4ccncc4)ccc3n2)C[C@H](C)N1C` (some centres undefined) [US20250099442, Compound I.66] reads 10 to 100 nM; that for `CN1CCC(C(=O)Nc2ccc3c(-c4ccncc4)c[nH]c3n2)CC1` [US20250099442, Compound I.67], < 10 nM; that for `CN1C2CCC1CC(C(=O)Nc1nc3ccc(-c4ccncc4)nc3s1)C2` (centres undefined) [US20250099442, Compound I.69], < 10 nM.

Consider `CN1C[C@@H]2C(C(=O)Nc3nc4ccc(-c5cccnc5)nc4s3)[C@@H]2C1` (some centres undefined) [US20250099442, Compound I.70], for which the IC50 lay within 100 to 1000 nM. Turning to `COc1cc(-c2ccc3nc(NC(=O)c4cccc(C#N)c4)sc3n2)ccn1` [US20250099442, Compound I.71], the IC50 was < 10 nM. In turn, `CN1CC2C(C1)C2C(=O)Nc1cc2cc(-c3ccncc3)cn2cn1` (centres undefined) [US20250099442, Compound I.72] registered an IC50 of 10 to 100 nM. `Cc1c(-c2ccncc2)cn2cnc(NC(=O)C3[C@H]4CN(C)C[C@@H]34)cc12` (some centres undefined) [US20250099442, Compound I.73] returned an IC50 of 10 to 100 nM. As for `Cc1c(-c2ccncc2)cn2cnc(NC(=O)C3C4CNCC43)cc12` (centres undefined) [US20250099442, Compound I.74], the IC50 was 10 to 100 nM. The molecule `Cc1c(C#CC2CCOCC2)nc2ccc(-c3ccncc3)cn12` [US20250099442, Compound I.76] came in with an IC50 of 10 to 100 nM. The molecule `O=C(O)c1ccc(-c2cnc3n2CCN(c2cccnc2)C3)cc1` [US20250099442, Compound I.78] showed an IC50 of 100 to 1000 nM. Consider `Cc1cc(-c2cnn3cc(-c4ccc5cnccc5c4)n(C)c(=O)c23)ccn1` [US20250099442, Compound I.80], for which the half-inhibitory concentration (IC50) was in the range of 100 to 1000 nM. `O=C(O)c1ccc(-c2cnc3n2CC(=O)N(C2CCOCC2)C3)cc1` [US20250099442, Compound I.81]: the IC50 is > 1000 nM.

(Values after BindingDB's records for patent US20250099442 (Prothena Biosciences, 2025).)
